This assay deals with T1, TAFIa (Homo sapiens, UniProt Q96IY4).
T1 sequence (Q96IY4 115-423): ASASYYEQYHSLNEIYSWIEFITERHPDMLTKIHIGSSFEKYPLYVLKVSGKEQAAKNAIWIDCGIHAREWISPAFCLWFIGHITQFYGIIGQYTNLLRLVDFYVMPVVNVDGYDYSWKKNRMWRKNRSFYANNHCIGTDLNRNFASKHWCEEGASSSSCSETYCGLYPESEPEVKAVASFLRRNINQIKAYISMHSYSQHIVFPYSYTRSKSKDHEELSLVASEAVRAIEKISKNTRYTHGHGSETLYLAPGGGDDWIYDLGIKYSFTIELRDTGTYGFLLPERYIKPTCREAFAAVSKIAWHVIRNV
Put plainly: Inhibition of TAFIa (hippuryl-Arg test). Format: biochemical. As to conditions: TAFIa 2 nM, hippuryl-arginine 5 mM, 45 minutes, relative to control containing the carrier; for inhibition at 0.01 µM: compound at 10 nM; for inhibition at 0.02 µM: compound at 20 nM. As to the method: Human TAFI (4 nM) is incubated with human thrombin (10 nM) and human thrombomodulin (5 nM) in the presence of calcium (10 mM). After incubation for 20 minutes, the activation reaction is stopped by addition of PPACK (1 μM final), an irreversible thrombin inhibitor.
The reactions take place in Hepes buffer (25 mM Hepes, 137 mM NaCl, 3.5 mM KCl)+0.1% bovine albumin, pH 7.4 at 28° C. and with stirring.
The test compound is added to the solution of TAFIa (2 nM) and incubated for 45 minutes in the presence of hippuryl-arginine (5 mM). The reaction is stopped by addition of hydrochloric acid (1M) neutralised subsequently with sodium hydroxide (1M), and then the mixture is buffered with disodium hydroxyphosphate (1M pH 7.4). […] The reaction mixture is stirred (vortex) and then centrifuged. The supernatant is transferred to a 96-well microplate, and the absorbance is measured using a spectrophotometer at 405 nm (Spectramax plus, Molecular Devices).
The OD value of a well containing the reagents without TAFI is subtracted from all the OD values measured. The percentage inhibition of TAFIa at a given concentration of the test compound is determined by means of the following formula: % inhibition=100−[(OD compound×100)/OD carrier]
The compounds are evaluated at 10 nM and 20 nM under the experimental conditions described above and the results are expressed as the percentage inhibition relative to a control containing the carrier in the absence of compound.

The structures appear in SMILES notation.

Turning to `NCCCCC1(C(=O)O)CN(Cc2ccccc2-c2cc(Cl)ccc2Cl)CCP1(=O)O` (stereo not drawn) [Example 48, 3-(4-AMINOBUTYL)-1-[[2-(2,5-DICHLOROPHENYL)PHENYL]METHYL]-4-HYDROXY-4-OXO-1,4-AZAPHOSPHINANE-3-CARBOXYLIC ACID], testing at 0.01 µM gave an inhibition of 45% and the inhibition at 0.02 µM was found to be 54%.
In the same order, the values of `NCCCCC1(C(=O)O)CN(Cc2ccccc2-c2cccc(-c3ccccc3)c2)CCP1(=O)O` (stereo not drawn) [Example 49, 3-(4-AMINOBUTYL)-4-HYDROXY-4-OXO-1-[[2-(3-PHENYLPHENYL)PHENYL]-METHYL]-1,4-AZAPHOSPHINANE-3-CARBOXYLIC ACID] are 60% and 73%.
In the same order, the values of `NCCCCC1(C(=O)O)CN(Cc2ccccc2-c2ccc3ccccc3c2)CCP1(=O)O` (stereo not drawn) [Example 50, 3-(4-AMINOBUTYL)-4-HYDROXY-1-[(2-NAPHTHALEN-2-YLPHENYL)METHYL]-4-OXO-1,4-AZAPHOSPHINANE-3-CARBOXYLIC ACID] are 53% and 66%.
In the same order, the values of `NCCCCC1(C(=O)O)CN(Cc2ccc(F)cc2-c2ccc(O)cc2)CCP1(=O)O` (stereo not drawn) [Example 104, 3-(4-AMINOBUTYL)-1-[[4-FLUORO-2-(4-HYDROXYPHENYL)PHENYL]METHYL]-4-HYDROXY-4-OXO-1,4-AZAPHOSPHINANE-3-CARBOXYLIC ACID] are 37% and 68%.
On to `NCCCCC1(C(=O)O)CN(Cc2ccsc2-c2ccccc2)CCP1(=O)O` (stereo not drawn) [Example 105, 3-(4-AMINOBUTYL)-4-HYDROXY-4-OXO-1-[(2-PHENYLTHIOPHEN-3-YL)METHYL]-1,4-AZAPHOSPHINANE-3-CARBOXYLIC ACID], for which at 0.01 µM the inhibition was 44% and the inhibition at 0.02 µM was found to be 66%.
Take `NCCCCC1(C(=O)O)CN(Cc2ccccc2-c2nccs2)CCP1(=O)O` (stereo not drawn) [Example 108, 3-(4-AMINOBUTYL)-4-HYDROXY-4-OXO-1-[[2-(1,3-THIAZOL-2-YL)PHENYL]-METHYL]-1,4-AZAPHOSPHINANE-3-CARBOXYLIC ACID]: the inhibition at 0.01 µM was 25% and testing at 0.02 µM gave an inhibition of 29%.
In the same order, the values of `NCCCCC1(C(=O)O)CN(Cc2ccccc2-c2cccc3ccccc23)CCP1(=O)O` (stereo not drawn) [Example 109, 3-(4-AMINOBUTYL)-4-HYDROXY-1-[(2-NAPHTHALEN-1-YLPHENYL)METHYL]-4-OXO-1,4-AZAPHOSPHINANE-3-CARBOXYLIC ACID] are 58% and 71%.
With `NCCCCC1(C(=O)O)CN(Cc2ccc(Cl)cc2-c2ccc(Cl)cc2)CCP1(=O)O` (stereo not drawn) [Example 113, 3-(4-AMINOBUTYL)-1-[[4-CHLORO-2-(4-CHLOROPHENYL)PHENYL]METHYL]-4-HYDROXY-4-OXO-1,4-AZAPHOSPHINANE-3-CARBOXYLIC ACID], at 0.01 µM the inhibition was 68% and testing at 0.02 µM gave an inhibition of 90%.
Take `NCCCCC1(C(=O)O)CN(Cc2ccccc2-c2ccccc2-c2ccccc2)CCP1(=O)O` (stereo not drawn) [Example 114, 3-(4-AMINOBUTYL)-4-HYDROXY-4-OXO-1-[[2-(2-PHENYLPHENYL)PHENYL]-METHYL]-1,4-AZAPHOSPHINANE-3-CARBOXYLIC ACID]: the inhibition at 0.01 µM came out at 42% and the inhibition at 0.02 µM worked out at 51%.
In the same order, the values of `NCCCCC1(C(=O)O)CN(Cc2ccccc2-c2ccc3c(c2)OCO3)CCP1(=O)O` (stereo not drawn) [Example 164, 3-(4-AMINOBUTYL)-1-[[2-(1,3-BENZODIOXOL-5-YL)PHENYL]METHYL]-4-HYDROXY-4-OXO-1,4-AZAPHOSPHINANE-3-CARBOXYLIC ACID] are 66% and 87%.
In the case of `COc1ccc(-c2ccccc2CN2CCP(=O)(O)C(CCCCN)(C(=O)O)C2)cn1` (stereo not drawn) [Example 165, 3-(4-AMINOBUTYL)-4-HYDROXY-1-[[2-(6-METHOXYPYRIDIN-3-YL)PHENYL]-METHYL]-4-OXO-1,4-AZAPHOSPHINANE-3-CARBOXYLIC ACID], the inhibition at 0.01 µM worked out at 76% and the inhibition at 0.02 µM amounted to 91%.
The like results for `NCCCCC1(C(=O)O)CN(Cc2ccccc2-c2ccc(=O)[nH]c2)CCP1(=O)O` (stereo not drawn) [Example 166, 3-(4-AMINOBUTYL)-4-HYDROXY-4-OXO-1-[[2-(6-OXO-1H-PYRIDIN-3-YL)PHENYL]METHYL]-1,4-AZAPHOSPHINANE-3-CARBOXYLIC ACID] were, in that order, 66% and 93%.
As for `NCCCCC1(C(=O)O)CN(Cc2ccccc2-c2cnc3ccccn23)CCP1(=O)O` (stereo not drawn) [Example 167, 3-(4-AMINOBUTYL)-4-HYDROXY-1-[(2-IMIDAZO[1,2-A]PYRIDIN-3-YLPHENYL)-METHYL]-4-OXO-1,4-AZAPHOSPHINANE-3-CARBOXYLIC ACID], the inhibition at 0.01 µM was 61% and the inhibition at 0.02 µM is 67%.
In the same order, the values of `CC(C)c1ccccc1CN1CCP(=O)(O)C(CCCCN)(C(=O)O)C1` (stereo not drawn) [Example 174, 3-(4-AMINOBUTYL)-4-HYDROXY-4-OXO-1-[(2-PROPAN-2-YLPHENYL)METHYL]-1,4-AZAPHOSPHINANE-3-CARBOXYLIC ACID] are 43% and 51%.
For the compound `NCCCCC1(C(=O)O)CN(Cc2ccccc2-c2ccc(Cl)c(Cl)c2)CCP1(=O)O` (stereo not drawn) [Example 175, 3-(4-AMINOBUTYL)-1-[[2-(3,4-DICHLOROPHENYL)PHENYL]METHYL]-4-HYDROXY-4-OXO-1,4-AZAPHOSPHINANE-3-CARBOXYLIC ACID], the inhibition at 0.01 µM amounted to 55% and the inhibition at 0.02 µM amounted to 77%.
In the same order, the values of `COc1ccc(-c2cc(F)ccc2CN2CCP(=O)(O)[C@](CCCCN)(C(=O)O)C2)cc1OC` [Example 179, (3S)-3-(4-AMINOBUTYL)-1-[[2-(3,4-DIMETHOXYPHENYL)-4-FLUOROPHENYL]-METHYL]-4-HYDROXY-4-OXO-1,4-AZAPHOSPHINANE-3-CARBOXYLIC ACID] are 74% and 83%.
The like results for `Cc1ccc(-c2cc(F)ccc2CN2CCP(=O)(O)[C@](CCCCN)(C(=O)O)C2)cc1` [Example 180, (3S)-3-(4-AMINOBUTYL)-1-[[4-FLUORO-2-(4-METHYLPHENYL)PHENYL]-METHYL]-4-HYDROXY-4-OXO-1,4-AZAPHOSPHINANE-3-CARBOXYLIC ACID] were, in that order, 54% and 73%.
In the same order, the values of `NCCCC[C@@]1(C(=O)O)CN(Cc2ccccc2-c2cncnc2)CCP1(=O)O` [Example 182, (3S)-3-(4-AMINOBUTYL)-4-HYDROXY-4-OXO-1-[(2-PYRIMIDIN-5-YLPHENYL)-METHYL]-1,4-AZAPHOSPHINANE-3-CARBOXYLIC ACID] are 81% and 95%.
In the case of `NCCCC[C@@]1(C(=O)O)CN(Cc2ccccc2-c2cccs2)CCP1(=O)O` [Example 183, (3S)-3-(4-AMINOBUTYL)-4-HYDROXY-4-OXO-1-[(2-THIOPHEN-2-YLPHENYL)-METHYL]-1,4-AZAPHOSPHINANE-3-CARBOXYLIC ACID], at 0.01 µM the inhibition was 73% and testing at 0.02 µM gave an inhibition of 88%.
The like results for `NCCCC[C@@]1(C(=O)O)CN(Cc2ccccc2-c2cccnc2)CCP1(=O)O` [Example 184, (3S)-3-(4-AMINOBUTYL)-4-HYDROXY-4-OXO-1-[(2-PYRIDIN-3-YLPHENYL)-METHYL]-1,4-AZAPHOSPHINANE-3-CARBOXYLIC ACID] were, in that order, 67% and 95%.
The compound `COc1cccc(-c2cc(F)ccc2CN2CCP(=O)(O)[C@](CCCCN)(C(=O)O)C2)c1` [Example 185, (3S)-3-(4-AMINOBUTYL)-1-[[4-FLUORO-2-(3-METHOXYPHENYL)PHENYL]-METHYL]-4-HYDROXY-4-OXO-1,4-AZAPHOSPHINANE-3-CARBOXYLIC ACID] showed an inhibition at 0.01 µM of 69% and an inhibition at 0.02 µM of 85%.
With `COc1ccc(-c2cc(F)ccc2CN2CCP(=O)(O)[C@](CCCCN)(C(=O)O)C2)cc1` [Example 187, (3S)-3-(4-AMINOBUTYL)-1-[[4-FLUORO-2-(4-METHOXYPHENYL)PHENYL]-METHYL]-4-HYDROXY-4-OXO-1,4-AZAPHOSPHINANE-3-CARBOXYLIC ACID], the inhibition at 0.01 µM was 74% and the inhibition at 0.02 µM is 97%.
The like results for `Cc1ccc(-c2ccccc2CN2CCP(=O)(O)[C@](CCCCN)(C(=O)O)C2)cc1` [Example 188, (3S)-3-(4-AMINOBUTYL)-4-HYDROXY-1-[[2-(4-METHYLPHENYL)PHENYL]-METHYL]-4-OXO-1,4-AZAPHOSPHINANE-3-CARBOXYLIC ACID] were, in that order, 64% and 86%.
`NCCCC[C@@]1(C(=O)O)CN(Cc2ccc(F)cc2-c2ccc(F)cc2)CCP1(=O)O` [Example 189, (3S)-3-(4-AMINOBUTYL)-1-[[4-FLUORO-2-(4-FLUOROPHENYL)PHENYL]METHYL]-4-HYDROXY-4-OXO-1,4-AZAPHOSPHINANE-3-CARBOXYLIC ACID] had an inhibition at 0.01 µM of 71% and an inhibition at 0.02 µM of 78%.

(Values after patent publication US10138260B2, “Compounds of phosphinanes and azaphosphinanes, a process for their preparation and pharmaceutical compositions containing them” (LES LABORATOIRES SERVIER, priority 2016, dated 2018).)
